Test results published in patent US4269831A, “Topical dermatological method of use of an androstenopyrazole” (priority 1979, dated 1981).

What was measured:
[1] = tested on: flank organ of mature male Syrian golden hamsters; test: Topical comparison in mature male hamsters, right flank organ treated, left flank organ vehicle (Tables II, III); type: in vivo; settings: n=7; for Flank organ Diameter, RFO / Flank organ Weight, RFO / Flank organ Development, RFO (median score): treated right flank organ; for Flank organ Diameter, RFO / Flank organ Weight, RFO: mean; for Flank organ Development, RFO (median score): scale 0 to 4 (0 barely visible, 4 as in mature male); for Flank Organ (Mean Score) Area / Flank Organ (Mean Score) Elevation / Flank Organ (Mean Score) Hair Growth / Flank Organ (Mean Score) Hair Pigmentation / Flank Organ (Mean Score) Skin Pigmentation: RFO, scale 0 to 4
Excerpt: Each flank organ of mature male Syrian golden hamsters having a mean initial body weight of 105 g. was medicated topically with the compound of Formula I dissolved in ethanol (5 microliters) for twenty-one days. Flank organ hair was clipped three times per week to facilitate application. On the day following the last medication the hamsters were killed with an overdose of sodium pentobarbital. The flank organ parameters and the weights of seminal vesicles, adrenals and thymus glands were determined. Flank organ diameter was measured parallel to the breadth of the hamster with vernier calipers. Wet weights were obtained on flank organs excised around the periphery of the pigmented area. The topical activity of the compound of Formula I was also compared with that of 17β-hydroxy-17α-propylandrost-4-en-3-one, an antiandrogen, and hydrocortisone. In this experiment the right flank organ was treated with the test compound while vehicle-treated left flank organ served as control. […] In addition, the individual characteristics of the flank organ, elevation (thickness relative to adjacent skin), area, hair pigment, skin pigment and hair growth were all scored separately on a scale of 0 to 4.

[2] = tested on: hair growth on backs of male adrenalectomized Sprague-Dawley rats; test: Reduction in hair growth in male adrenalectomized rats, topical (Table VII); type: in vivo; settings: 0.1% solution topical, n=12
Excerpt: Hair was clipped from the backs of male Sprague-Dawley rats, having a mean body weight of 300 g., three weeks after adrenalectomy. The clipped area (4 cm.×4 cm.) was medicated with approximately 500 microliters of 0.1% solution of the compound of Formula I, or hydrocortisone or 500 microliters of ethanol alone for a two-week pretreatment period. The clipped area was then depilated and the medication with either solution or ethanol alone was continued for 4 weeks. The density of hair growth was scored visually at weekly intervals and at termination of the experiment on a scale of 0 to 4 (0, no hair growth; 4, complete hair regrowth). Skinfold thickness was also measured using a micrometer at the end of the experiment, which was conducted blind.

[3] = tested on: castrated immature male Syrian golden hamsters; test: Systemic antiandrogenic and glucocorticoid activity, subcutaneous, with testosterone propionate (Table IV); type: in vivo; settings: testosterone propionate 0.4 mg/kg/day alone for 14 days (androgen-treated control); mean, n=8
Description: A solution of the compound of Formula I in cottonseed oil was administered subcutaneously at 1 ml./kg. to castrated immature male Syrian golden hamsters having a mean initial body weight of 79 g. for 14 consecutive days concurrently with testosterone propionate. On the day following the last medication the hamsters were killed, the flank organ parameters were determined and the weights of seminal vesicles, adrenals and thymus glands were obtained.

[4] = target: T1, hamster flank organ cytosol receptor (Mesocricetus auratus, UniProt A0A1U7QL32); test: Binding competition with 3H-dihydrotestosterone in hamster flank organ cytosol in vitro (Table VI); set-up: species or system Syrian golden hamsters; settings: 3H-DHT 2 nM, two hours, no antagonist 13.96
T1 construct: The homogenate was centrifuged (120,000×g for 45 min.) and the cytosol was frozen and stored at -70° C; from tissue; host or cells: flank organ cytosol of castrated male Syrian golden hamsters
T1 sequence (A0A1U7QL32 1-900): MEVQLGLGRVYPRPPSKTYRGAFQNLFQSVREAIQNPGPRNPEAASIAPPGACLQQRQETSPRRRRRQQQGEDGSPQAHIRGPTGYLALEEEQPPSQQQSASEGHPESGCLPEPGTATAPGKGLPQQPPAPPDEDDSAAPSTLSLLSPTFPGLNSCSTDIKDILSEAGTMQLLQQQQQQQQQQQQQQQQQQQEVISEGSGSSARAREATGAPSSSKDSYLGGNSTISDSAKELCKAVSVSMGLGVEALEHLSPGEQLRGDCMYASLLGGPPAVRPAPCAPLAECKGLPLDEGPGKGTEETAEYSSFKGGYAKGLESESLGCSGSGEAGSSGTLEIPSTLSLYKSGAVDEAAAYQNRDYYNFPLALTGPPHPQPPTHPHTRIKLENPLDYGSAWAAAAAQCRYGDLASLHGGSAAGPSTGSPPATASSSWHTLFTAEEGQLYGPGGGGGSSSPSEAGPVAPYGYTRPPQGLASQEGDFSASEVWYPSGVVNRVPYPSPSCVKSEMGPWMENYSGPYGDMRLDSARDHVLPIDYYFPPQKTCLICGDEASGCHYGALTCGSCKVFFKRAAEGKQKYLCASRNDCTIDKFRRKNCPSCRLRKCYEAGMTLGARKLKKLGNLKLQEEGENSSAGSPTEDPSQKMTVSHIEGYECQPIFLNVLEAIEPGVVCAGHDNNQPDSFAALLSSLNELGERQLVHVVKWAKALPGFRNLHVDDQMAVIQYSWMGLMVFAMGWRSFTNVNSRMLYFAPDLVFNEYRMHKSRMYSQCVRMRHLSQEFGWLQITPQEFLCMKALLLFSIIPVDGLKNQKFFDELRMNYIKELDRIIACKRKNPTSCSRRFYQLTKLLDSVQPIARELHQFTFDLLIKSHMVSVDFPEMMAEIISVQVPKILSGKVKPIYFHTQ
Description: The flank organs of twelve mature male Syrian golden hamsters each weighing from 120 to 140 g. and having been castrated 16-18 hours earlier were excised, dissected under the microscope to remove the dermis and the muscle layers and homogenized in buffer (1.5 volumes of 50 mM Tris, 0.5 mM mercaptoethanol and 0.1 mM ethylenediamine tetracetate, pH 7.4). The homogenate was centrifuged (120,000×g for 45 min.) and the cytosol was frozen and stored at -70° C. Six of the cytosol samples were thawed at room temperature, pooled and used for evaluation of in vitro binding.

[5] = after depilation, median score, scale 0 to 4

| Structure (SMILES) | Flank organ Diameter, RFO ([1]; 5 μg/RFO for 21 days) | Flank organ Weight, RFO ([1]; 5 μg/RFO for 21 days) | Flank organ Development, RFO (median score) ([1]; 5 μg/RFO for 21 days) | Flank organ Diameter, RFO ([1]; 50 μg/RFO for 21 days) | Flank organ Weight, RFO ([1]; 50 μg/RFO for 21 days) | Flank organ Development, RFO (median score) ([1]; 50 μg/RFO for 21 days) | Flank Organ (Mean Score) Area ([1]; 5 μg/flank organ for 21 days) | Flank Organ (Mean Score) Elevation ([1]; 5 μg/flank organ for 21 days) | Flank Organ (Mean Score) Hair Growth ([1]; 5 μg/flank organ for 21 days) | Flank Organ (Mean Score) Hair Pigmentation ([1]; 5 μg/flank organ for 21 days) | Flank Organ (Mean Score) Skin Pigmentation ([1]; 5 μg/flank organ for 21 days) | Flank Organ (Mean Score) Area ([1]; 50 μg/flank organ for 21 days) | Flank Organ (Mean Score) Elevation ([1]; 50 μg/flank organ for 21 days) | Flank Organ (Mean Score) Hair Growth ([1]; 50 μg/flank organ for 21 days) | Flank Organ (Mean Score) Hair Pigmentation ([1]; 50 μg/flank organ for 21 days) | Flank Organ (Mean Score) Skin Pigmentation ([1]; 50 μg/flank organ for 21 days) | further results |
| --- | --- | --- | --- | --- | --- | --- | --- | --- | --- | --- | --- | --- | --- | --- | --- | --- | --- |
| C[C@]12CCC(=O)C=C1CC[C@@H]1[C@@H]2[C@@H](O)C[C@@]2(C)[C@H]1CC[C@]2(O)C(=O)CO [Hydrocortisone, hydrocortisone] | 5.7 mm | 38.5 mg | 4 | 5.7 mm | 39.1 mg | 4 | 3.7 | 3.7 | 1.9 | 3.7 | 3.9 | 4.0 | 3.5 | 1.3 | 3.0 | 3.4 | Hair Growth Score, Treatment week 1 [2, 5]: 0; Hair Growth Score, Treatment week 2 [2, 5]: 0; Hair Growth Score, Treatment week 3 [2, 5]: 1; Hair Growth Score, Treatment week 4 [2, 5]: 2; Skinfold Thickness, Treatment week 4 ([2]; mean, vehicle 2.51): 2.11 mm; Hair Growth Score, Pretreatment week 1 ([2]; median score, scale 0 to 4 (0 no hair growth, 4 complete regrowth)): 2; Hair Growth Score, Pretreatment week 2 ([2]; median score, scale 0 to 4): 3 |
| CCC[C@]1(O)CC[C@H]2[C@@H]3CCC4=CC(=O)CC[C@]4(C)[C@H]3CC[C@@]21C [17β-Hydroxy-17α-propylandrost-4-en-3-one, 17β-hydroxy-17α-propylandrost-4-en-3-one] | 4.9 mm | 33.8 mg | 3 | 3.9 mm | 21.4 mg | 2 | 3.1 | 2.6 | 3.1 | 3.3 | 4.0 | 1.6 | 1.4 | 2.3 | 2.6 | 2.7 | – |
| CCC(=O)O[C@H]1CC[C@H]2[C@@H]3CCC4=CC(=O)CC[C@]4(C)[C@H]3CC[C@]12C [Testosterone Propionate, testosterone propionate, reference compound] | – | – | – | – | – | – | – | – | – | – | – | – | – | – | – | – | Final Body Weight [3]: 106; Flank Organ Diameter [3]: 4.3 mm; Flank Organ Wet Weight [3]: 22.8 mg; Organ Weights: Adrenals [3]: 18.2 mg; Organ Weights: Seminal Vesicles [3]: 157 mg; Organ Weights: Thymus [3]: 58 mg |
| C[C@]12CCC(=O)C[C@@H]1CC[C@@H]1[C@@H]2CC[C@]2(C)[C@@H](O)CC[C@@H]12 [DHT, Dihydrotestosterone, reference compound] | – | – | – | – | – | – | – | – | – | – | – | – | – | – | – | – | % Bound (Mean ± SE) of 3H-dihydrotestosterone ([4]; unlabelled antagonist 20 nM, molar ratio 10): 7.95 ± .41%; % Bound (Mean ± SE) of 3H-dihydrotestosterone ([4]; unlabelled antagonist 200 nM, molar ratio 100): 4.22 ± .001%; % Bound (Mean ± SE) of 3H-dihydrotestosterone ([4]; unlabelled antagonist 2000 nM, molar ratio 1000): 4.00 ± .22% |
